Source: patent US8461202B2, “Composition for treating infectious diseases” (priority 2007, dated 2013)

Key:
[1] = molecular target: T1, H. pylori flavodoxin (Helicobacter pylori, UniProt O25776); assay: Inhibition of the sequential electron transfer reaction pyruvate-PFOR-flavodoxin-FqrB-NADP+ (NADPH formation at 340 nm); format: biochemical; conditions: 50 μM compound; anaerobic; absorbance at 340 nm; 10 μM Fld
T1 construct: made in house; host or cells: E. coli BL21 (flavodoxin); E. coli JVQ2 (PFOR); E. coli BL21(DE3) (FqrB)
T1 sequence (O25776 1-164): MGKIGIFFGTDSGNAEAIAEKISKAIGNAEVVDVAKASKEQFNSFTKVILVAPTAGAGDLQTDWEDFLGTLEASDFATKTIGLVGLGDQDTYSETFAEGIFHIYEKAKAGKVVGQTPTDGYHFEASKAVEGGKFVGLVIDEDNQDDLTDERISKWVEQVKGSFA
Source text: Measurement of the absorbance (A) (AU is the unit of absorbance) at 340 nm against time (t) in seconds (s).
Flavodoxin is an essential protein for Helicobacter pylori survival as it participates in a fundamental reaction for obtaining energy from the oxidative decarboxylation of pyruvate. In this reaction, flavodoxin transfers electrons between the PFOR enzyme and the FqrB enzyme, which releases them to NADP^+.
The sequential reaction of electron transfer between pyruvate, PFOR, flavodoxin, FqrB and NADP^+ (activity assay) was followed spectroscopically by the appearance of the signal at 340 nm with the formation of NADPH. The reaction mixture contained 100 mM potassium phosphate pH 7, 10 mM pyruvate, 0.18 mM CoA, 1 mM MgCl, 0.3 mM NADP^+, 0.09 mg/ml PFOR, 10 μM Fld and 0.15 μM FqrB. The mixture, except CoA, was placed in a cuvette specially designed for anaerobic conditions. Oxygen was removed by means of 5 minute cycles with alternate flows of vacuum and argon. The reaction was started by the addition of 0.18 mM coenzyme A (CoA) that was held in a compartment inside the same cuvette. The reaction completed 15 minutes after adding the CoA reagent.
The inhibition assays were carried out in the same conditions as the activity assays previously described, adding an additional 50 μM of the disclosed compound of the general formula shown in (II) to the reaction cuvette.

[2] = molecular target: T2, flavodoxin of H. pylori (Helicobacter pylori, UniProt O25776); assay: Binding to flavodoxin by isothermal titration calorimetry (ITC); conditions: 50 mM EPPS buffer, pH 9 with 7% DMSO, protein around 20 μM, read-out: affinity for flavodoxin (affinity constant)
T2 construct: made in house; host or cells: E. coli BL21
Protocol: The specific binding of the inhibitors of the present invention to flavodoxin of H. pylori was confirmed by isothermal titration calorimetry (ITC). This technique not only measures the affinity of each compound for the target protein, but also determines the contribution of the enthalpic and entropic components of binding.
The binding experiments were carried out in 50 mM EPPS buffer, pH 9 with 7% DMSO, with the inhibitor in the injection syringe at a concentration of 300-500 μM, and the protein around 20 μM in the measurement cell.

**Q.** Which “inhibition of product (NADPH) formation in the essential reaction of H. pylori” value [1] does the source give for `O=[N+]([O-])/C=C/c1cc(C(F)(F)F)cc(C(F)(F)F)c1` [(II)] here?
**A.** almost total

**Q.** And the Kd [2]?
**A.** 8 µM
